Results reported in patent publication US10716773B2, “Compositions comprising 15-HEPE and methods of treating or preventing cancer and neurologic disease” (Afimmune Limited, priority 2015, dated 2020).
Values joined by “and” are separate entries in the source; they are usually repeats but may differ in a detail not shown here. Equal entries are not always repeated.

How the values were obtained:
caspase-3/7 = assay: Staurosporine-induced caspase-3/7 activity in NHDF, measured in cell lysates with fluorogenic substrate Ac-DEVD-AMC; type: cell-based, human; conditions: for Caspase-3/7 activity (Fluorescence 380 nm/440 nm) / Caspase-3/7 activity - Background (Fluorescence 380 nm/440 nm) / Caspese-3/7 activity/proteins: single replicates
Description: The potential inhibitory effect of compounds 15(S)-HEPE EE and EPA EE was evaluated on staurosporine-induced caspase activation in normal human dermal fibroblasts (NHDF). […] Normal human dermal fibroblasts (NHDF) were used at the 8th passage. […] Fibroblasts were seeded in 24-well plates and cultured for 24 hours in culture medium. The medium was then removed and replaced by assay medium containing or not (control) the test compounds and cells were pre-incubated for 24 hours. […] The cells were then incubated for 24 hours. Non-stimulated controls (without inducer) were performed in parallel. All experimental conditions were performed in n=3. […] Enzyme activity assay and protein quantification assay were performed in separated plates due to the fact that DTT used in the lysis buffer for caspase activity interferes with protein quantification. […] Lysis buffer: HEPES buffer (pH 7.4) containing EDTA, Triton X-100, NP-40 and DTT Assay Buffer: HEPES buffer (pH 7.4) containing NaCl, EDTA, NP-40, glycerol and DTT Substrate: Ac-DEVD-AMC, tested at 10 μM (stock solution at 1.5 mM in DMSO) Reference inhibitor: […] Ac-DEVD-AMC is a synthetic tetrapeptide fluorogenic substrate for caspase-3 and caspase-7 and contains the amino acid sequence of the PARP cleavage site at […]. […] Enzymes cleave the tetrapeptide between D and AMC resulting in the release of fluorogenic AMC, which can be quantified with a spectrofluorometer. […] In parallel, an additional control (assay buffer containing the substrate) was also performed to determine the background signal. At the end of incubation, the fluorescence intensity emitted by the reaction product (cleaved Ac-DEVD-AMC) was measured at wavelengths λex 380 nm and λem 440 nm using a spectrofluorimeter (SPECTRAmax® Gemini, Molecular Devices).

[1] = tested on: normal human dermal fibroblasts (NHDF); assay: MTT reduction assay and observation of the cell layers: viability of fibroblasts after 48 hours of incubation; type: cell-based; conditions: for Visability (%): single replicates; on Morpholigical observations: key: +: normal population; +/−: growth reduction; −: toxicity; 0: cell mortality; grains of compound; opacity of the compound; *: morphological modification; agglutinated cells
Description: Normal human dermal fibroblasts (NHDF) were used at the 8th passage. Cells were cultured at 37° C., 5% CO2 in DMEM supplemented with L-glutamine 2 mM, 50 U/ml Penicillin, 50 μg/ml Streptomycin and 10% Foetal calf serum (FCS).

[2] = 0.001 μg/ml, staurosporine-stimulated NHDF
[3] = 0.01 μg/ml, staurosporine-stimulated NHDF
[4] = 0.1 μg/ml, staurosporine-stimulated NHDF
[5] = 1 μg/ml, staurosporine-stimulated NHDF
[6] = 10 μg/ml, staurosporine-stimulated NHDF
[7] = 100 μg/ml, staurosporine-stimulated NHDF
[8] = tested from 0.001 to 10 μg/ml, staurosporine-stimulated NHDF
[9] = 0.001 μg/ml, staurosporine-stimulated NHDF, listed as 16(8)-HE PE EE
[10] = 0.01 μg/ml, staurosporine-stimulated NHDF, listed as 16(8)-HE PE EE
[11] = 0.1 μg/ml, staurosporine-stimulated NHDF, listed as 16(8)-HE PE EE
[12] = 1 μg/ml, staurosporine-stimulated NHDF, listed as 16(8)-HE PE EE
[13] = 10 μg/ml, staurosporine-stimulated NHDF, listed as 16(8)-HE PE EE
[14] = 100 μg/ml, staurosporine-stimulated NHDF, listed as 16(8)-HE PE EE
[15] = 0.1 μm, inhibitor added in the reaction mix of stimulated control lysate
[16] = 0.1 μm, inhibitor added in the reaction mix of stimulated control lysate, listed as Ao-DEVO-CHO

## CC/C=C\C/C=C\C/C=C\C/C=C\C/C=C\CCCC(=O)OCC [EPA EE]
caspase-3/7; [2]
  % inhibition: −31%
  % stimulated control: 128%
  Normalized data: Mean (caspase-3/7 activity/proteins): 113173 AU/mg
  Caspase-3/7 activity (Fluorescence 380 nm/440 nm): 1457 AU and 1667 AU and 1637 AU
  Caspase-3/7 activity - Background (Fluorescence 380 nm/440 nm): 1140 AU and 1350 AU and 1320 AU
  Caspese-3/7 activity/proteins: 100237 AU/mg and 128199 AU/mg and 111084 AU/mg
caspase-3/7; [3]
  % inhibition: −1%
  % stimulated control: 101%
  Normalized data: Mean (caspase-3/7 activity/proteins): 89425 AU/mg
  Caspase-3/7 activity (Fluorescence 380 nm/440 nm): 1359 AU and 1476 AU and 1472 AU
  Caspase-3/7 activity - Background (Fluorescence 380 nm/440 nm): 1042 AU and 1159 AU and 1155 AU
  Caspese-3/7 activity/proteins: 89522 AU/mg and 89043 AU/mg and 89708 AU/mg
caspase-3/7; [4]
  % inhibition: 5%
  % stimulated control: 95%
  Normalized data: Mean (caspase-3/7 activity/proteins): 84209 AU/mg
  Caspase-3/7 activity (Fluorescence 380 nm/440 nm): 1474 AU and 1382 AU and 1558 AU
  Caspase-3/7 activity - Background (Fluorescence 380 nm/440 nm): 1157 AU and 1065 AU and 1241 AU
  Caspese-3/7 activity/proteins: 83312 AU/mg and 79809 AU/mg and 89506 AU/mg
caspase-3/7; [5]
  % inhibition: −3%
  % stimulated control: 103%
  Normalized data: Mean (caspase-3/7 activity/proteins): 90527 AU/mg
  Caspase-3/7 activity (Fluorescence 380 nm/440 nm): 1423 AU and 1604 AU and 1486 AU
  Caspase-3/7 activity - Background (Fluorescence 380 nm/440 nm): 1106 AU and 1287 AU and 1169 AU
  Caspese-3/7 activity/proteins: 87358 AU/mg and 96851 AU/mg and 87370 AU/mg
caspase-3/7; [6]
  % inhibition: 2%
  % stimulated control: 98%
  Normalized data: Mean (caspase-3/7 activity/proteins): 86723 AU/mg
  Caspase-3/7 activity (Fluorescence 380 nm/440 nm): 1335 AU and 1264 AU and 1458 AU
  Caspase-3/7 activity - Background (Fluorescence 380 nm/440 nm): 1018 AU and 947 AU and 1141 AU
  Caspese-3/7 activity/proteins: 78044 AU/mg and 76787 AU/mg and 105337 AU/mg
caspase-3/7; [7]
  % inhibition: 61%
  % stimulated control: 45%
  Normalized data: Mean (caspase-3/7 activity/proteins): 39319 AU/mg
  effect on caspase-3/7 activity (in words): clear inhibitory effect
  Caspase-3/7 activity (Fluorescence 380 nm/440 nm): 807 AU and 843 AU and 1068 AU
  Caspase-3/7 activity - Background (Fluorescence 380 nm/440 nm): 490 AU and 526 AU and 751 AU
  Caspese-3/7 activity/proteins: 29572 AU/mg and 37623 AU/mg and 50763 AU/mg
caspase-3/7; [8]
  effect on caspase-3/7 activity (in words): no effect
[1]; 0.001 μg/ml
  Morpholigical observations: +
  Visability (%) Mean: 100%
  Visability (%): 99% and 97% and 104%
[1]; 0.01 μg/ml
  Morpholigical observations: +
  Visability (%) Mean: 98%
  Visability (%): 101% and 94% and 98%
[1]; 0.1 μg/ml
  Morpholigical observations: +
  Visability (%) Mean: 99%
  Visability (%): 99% (2×) and 98%
[1]; 1 μg/ml
  Morpholigical observations: +
  Visability (%) Mean: 97%
  Visability (%): 95% (2×) and 100%
[1]; 10 μg/ml
  Morpholigical observations: +
  Visability (%) Mean: 97%
  Visability (%): 94% and 98% and 100%
[1]; 30 μg/ml
  Morpholigical observations: +
  Visability (%) Mean: 96%
  Visability (%): 99% and 95% and 93%
[1]; 100 μg/ml
  Morpholigical observations: +
  Visability (%) Mean: 100%
  Visability (%): 102% and 98% and 100%
[1]; 300 μg/ml
  Morpholigical observations: +
  Visability (%) Mean: 106%
  Visability (%): 105% and 107% and 106%

## CC/C=C\C[C@H](O)/C=C/C=C\C/C=C\C/C=C\CCCC(=O)OCC [15(S)-HEPE EE]
caspase-3/7; [2]
  % inhibition: −37%
  % stimulated control: 134%
  Normalized data: Mean (caspase-3/7 activity/proteins): 114767 AU/mg
caspase-3/7; [9]
  Caspase-3/7 activity (Fluorescence 380 nm/440 nm): 1809 AU and 1753 AU and 1686 AU
  Caspase-3/7 activity - Background (Fluorescence 380 nm/440 nm): 1479 AU and 1423 AU and 1396 AU
  Caspese-3/7 activity/proteins: 109076 AU/mg and 129611 AU/mg and 105615 AU/mg
caspase-3/7; [3]
  % inhibition: −6%
  % stimulated control: 106%
  Normalized data: Mean (caspase-3/7 activity/proteins): 90306 AU/mg
caspase-3/7; [10]
  Caspase-3/7 activity (Fluorescence 380 nm/440 nm): 1495 AU and 1587 AU and 1789 AU
  Caspase-3/7 activity - Background (Fluorescence 380 nm/440 nm): 1166 AU and 1258 AU and 1459 AU
  Caspese-3/7 activity/proteins: 81085 AU/mg and 89757 AU/mg and 100075 AU/mg
caspase-3/7; [4]
  % inhibition: 4%
  % stimulated control: 98%
  Normalized data: Mean (caspase-3/7 activity/proteins): 82485 AU/mg
caspase-3/7; [11]
  Caspase-3/7 activity (Fluorescence 380 nm/440 nm): 1468 AU and 1697 AU and 1154 AU
  Caspase-3/7 activity - Background (Fluorescence 380 nm/440 nm): 1139 AU and 1367 AU and 825 AU
  Caspese-3/7 activity/proteins: 81102 AU/mg and 109799 AU/mg and 56654 AU/mg
caspase-3/7; [5]
  % inhibition: −9%
  % stimulated control: 108%
  Normalized data: Mean (caspase-3/7 activity/proteins): 93200 AU/mg
caspase-3/7; [12]
  Caspase-3/7 activity (Fluorescence 380 nm/440 nm): 1536 AU and 1600 AU and 1735 AU
  Caspase-3/7 activity - Background (Fluorescence 380 nm/440 nm): 1206 AU and 1270 AU and 1406 AU
  Caspese-3/7 activity/proteins: 86474 AU/mg and 94481 AU/mg and 93645 AU/mg
caspase-3/7; [6]
  % inhibition: 8%
  % stimulated control: 93%
  Normalized data: Mean (caspase-3/7 activity/proteins): 80078 AU/mg
caspase-3/7; [13]
  Caspase-3/7 activity (Fluorescence 380 nm/440 nm): 1439 AU and 1551 AU and 1514 AU
  Caspase-3/7 activity - Background (Fluorescence 380 nm/440 nm): 1109 AU and 1221 AU and 1184 AU
  Caspese-3/7 activity/proteins: 76241 AU/mg and 81395 AU/mg and 82597 AU/mg
caspase-3/7; [7]
  % inhibition: 83%
  % stimulated control: 26%
  Normalized data: Mean (caspase-3/7 activity/proteins): 21632 AU/mg
  effect on caspase-3/7 activity (in words): clear inhibitory effect
caspase-3/7; [14]
  Caspase-3/7 activity (Fluorescence 380 nm/440 nm): 663 AU and 729 AU and 660 AU
  Caspase-3/7 activity - Background (Fluorescence 380 nm/440 nm): 324 AU and 400 AU and 320 AU
  Caspese-3/7 activity/proteins: 15788 AU/mg and 15464 AU/mg and 19643 AU/mg
caspase-3/7; [8]
  effect on caspase-3/7 activity (in words): no effect
[1]; 0.001 μg/ml
  Visability (%) Mean: 98%
  Visability (%): 99% and 97% and 98%
[1]; 0.01 μg/ml
  Visability (%) Mean: 96%
  Visability (%): 90% and 100% and 98%
[1]; 0.1 μg/ml
  Visability (%) Mean: 97%
  Visability (%): 99% and 96% and 98%
[1]; 1 μg/ml
  Visability (%) Mean: 97%
  Visability (%): 96% (2×) and 97%
[1]; 10 μg/ml
  Visability (%) Mean: 101%
  Visability (%): 100% and 102% and 101%
[1]; 30 μg/ml
  Visability (%) Mean: 99%
  Visability (%): 103% and 98% and 96%
[1]; 100 μg/ml
  Visability (%) Mean: 104%
  Visability (%): 103% and 105% and 104%
[1]; 300 μg/ml
  Visability (%) Mean: 100%
  Visability (%): 98% and 105% and 97%

## CN[C@@H]1C[C@H]2O[C@@](C)([C@@H]1OC)n1c3ccccc3c3c4c(c5c6ccccc6n2c5c31)C(=O)NC4 [staurosporine]
caspase-3/7; staurosporine 100 nM, NHDF
  increase of caspase-3/7 activity normalized versus protein quantity, staurosporine-stimulated versus non-stimulated conditions: 10 fold

## Ac-DEVD-CHO
caspase-3/7; 0.1 μM, added in the reaction mix
  inhibition of staurosporine-stimulated caspase-3/7 activity (in words): fully inhibited
caspase-3/7; [15]
  % inhibition: 109%
  % stimulated control: 1%
  Normalized data: Mean (caspase-3/7 activity/proteins): 954 AU/mg
caspase-3/7; [16]
  Caspase-3/7 activity (Fluorescence 380 nm/440 nm): 347 AU and 343 AU and 339 AU
  Caspase-3/7 activity - Background (Fluorescence 380 nm/440 nm): 17 AU and 13 AU and 10 AU
  Caspese-3/7 activity/proteins: 1254 AU/mg and 934 AU/mg and 674 AU/mg
